Peptide text beside a SMILES is read from it. * marks the point of attachment. Cbz = O=C(OCc1ccccc1)*
Tested on: calpain
Experiment: cell-based luminescent calpain activity assay

- EC50: 14 ± 1.4 µM
SMILES: CC(C)[C@H](NC(=O)OCc1ccccc1)C(=O)N[C@H](C=O)Cc1ccccc1 [MDL-28170] (Cbz-Val-Phe-aldehyde)

Reference: paper PMC2754199 (Journal of biomolecular screening, 2008)
